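Briefly, cells in 96-well plates were exposed to five compound concentrations for 48 h, and endpoints were estimated by linear interpolation. At the GI50, growth is halved.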 Calls of active or inactive are those of the source. Rule as the data show it: active = GI50 up to about 1.1 µM and inactive = higher.
Experiments:
Assay in all cases: DTP human tumour cell line panel, 48 h
A549 = tested on: A549
SW-620 = tested on: SW-620
NCI-H226 = tested on: NCI-H226
HOP-62 = tested on: HOP-62
CAKI-1 = tested on: CAKI-1
OVCAR-5 = tested on: OVCAR-5
OVCAR-3 = tested on: OVCAR-3
786-0 = tested on: 786-0
SR = tested on: SR
NCI-H522 = tested on: NCI-H522
CCRF-CEM = tested on: CCRF-CEM
HCT-15 = tested on: HCT-15
SK-MEL-5 = tested on: SK-MEL-5
LOX IMVI = tested on: LOX IMVI
SNB-19 = tested on: SNB-19
U-251 = tested on: U-251
OVCAR-4 = tested on: OVCAR-4
RXF 393 = tested on: RXF 393
NCI/ADR-RES = tested on: NCI/ADR-RES
T47D = tested on: T47D

Which results are given for O=C1c2ccccc2C2C1N2C(=O)C(F)(F)F (stereo not drawn)?
GI50 (A549): > 100 µM (inactive); GI50 (SW-620): > 100 µM (inactive); GI50 (NCI-H226): > 100 µM (inactive); GI50 (HOP-62): > 100 µM (inactive); GI50 (CAKI-1): > 100 µM (inactive); GI50 (OVCAR-5): > 100 µM (inactive); GI50 (OVCAR-3): > 100 µM (inactive); GI50 (786-0): > 100 µM (inactive); GI50 (SR): 26.9 µM (inactive); GI50 (NCI-H522): > 100 µM (inactive); GI50 (CCRF-CEM): 25.9 µM (inactive); GI50 (HCT-15): > 100 µM; GI50 (SK-MEL-5): > 100 µM (inactive); GI50 (LOX IMVI): 49 µM (inactive); GI50 (SNB-19): > 100 µM (inactive); GI50 (U-251): > 100 µM (inactive); GI50 (OVCAR-4): > 100 µM (inactive); GI50 (RXF 393): > 100 µM (inactive)

Which results are given for CC(=O)O/N=C/c1ncccc1OC(C)=O?
GI50 (A549): > 100 µM (inactive); GI50 (SW-620): > 100 µM (inactive); GI50 (NCI-H226): > 100 µM (inactive); GI50 (HOP-62): > 100 µM (inactive); GI50 (CAKI-1): > 100 µM (inactive); GI50 (OVCAR-5): > 100 µM (inactive); GI50 (OVCAR-3): > 100 µM (inactive); GI50 (786-0): > 100 µM (inactive); GI50 (SR): > 100 µM (inactive); GI50 (NCI-H522): > 100 µM (inactive); GI50 (CCRF-CEM): > 100 µM (inactive); GI50 (HCT-15): > 100 µM; GI50 (SK-MEL-5): > 100 µM (inactive); GI50 (LOX IMVI): > 100 µM (inactive); GI50 (SNB-19): > 100 µM (inactive); GI50 (U-251): > 100 µM (inactive); GI50 (OVCAR-4): > 100 µM (inactive); GI50 (RXF 393): > 100 µM (inactive)

Which results are given for O=C1NC(Cc2c[nH]c3ccccc23)C(=O)N2C(C3CCCCC3)c3[nH]c4ccccc4c3C[C@@H]12 (stereo partly drawn)?
GI50 (A549): 10.9 µM (inactive); GI50 (SW-620): 15.7 µM (inactive); GI50 (NCI-H226): 24.2 µM (inactive); GI50 (HOP-62): 18.2 µM (inactive); GI50 (CAKI-1): 18.3 µM (inactive); GI50 (OVCAR-5): 20.7 µM (inactive); GI50 (OVCAR-3): 2.38 µM (inactive); GI50 (786-0): 11.4 µM (inactive); GI50 (SR): 7.45 µM (inactive); GI50 (NCI-H522): 7.98 µM (inactive); GI50 (HCT-15): 12.4 µM; GI50 (SK-MEL-5): 12.8 µM (inactive); GI50 (NCI/ADR-RES): 11.7 µM (inactive); GI50 (LOX IMVI): 13.3 µM (inactive); GI50 (SNB-19): 22.3 µM (inactive); GI50 (U-251): 11.4 µM (inactive); GI50 (OVCAR-4): 11.1 µM (inactive); GI50 (RXF 393): 5.98 µM (inactive)

With COC(=O)[C@@H]1C(=O)O[C@@H](c2ccc(OC)c(OC)c2OC)[C@@H]1C(=O)OC.COC(=O)[C@H]1C(=O)O[C@@H](c2ccc(OC)c(OC)c2OC)[C@@H]1C(=O)OC as the compound, how does the GI50 (A549) read?
The GI50 was > 100 µM (inactive).

And the GI50 (SW-620)?
Its GI50 is > 100 µM (inactive).

What about the GI50 (NCI-H226) of the same compound?
The GI50 was > 100 µM (inactive).

What about the GI50 (HOP-62) of the same compound?
Its GI50 is > 100 µM (inactive).

And the GI50 (CAKI-1)?
The GI50 was > 100 µM (inactive).

And the GI50 (OVCAR-5)?
Its GI50 is > 100 µM (inactive).

And the GI50 (OVCAR-3)?
The GI50 was > 100 µM (inactive).

What about the GI50 (786-0) of the same compound?
Its GI50 is > 100 µM (inactive).

What about the GI50 (SR) of the same compound?
Its GI50 is > 100 µM (inactive).

What about the GI50 (NCI-H522) of the same compound?
Its GI50 is > 100 µM (inactive).

And the GI50 (CCRF-CEM)?
The GI50 was > 100 µM (inactive).

What about the GI50 (HCT-15) of the same compound?
The GI50 was greater than 100 µM.

What about the GI50 (SK-MEL-5) of the same compound?
The GI50 was > 100 µM (inactive).

And the GI50 (LOX IMVI)?
Its GI50 is > 100 µM (inactive).

What about the GI50 (SNB-19) of the same compound?
Its GI50 is > 100 µM (inactive).

What about the GI50 (U-251) of the same compound?
The GI50 was > 100 µM (inactive).

What about the GI50 (OVCAR-4) of the same compound?
Its GI50 is > 100 µM (inactive).

And the GI50 (RXF 393)?
Its GI50 is > 100 µM (inactive).

With Cn1c(=O)c2[nH]c(Nc3cccc(Cl)c3)nc2n(C)c1=O as the compound, how does the GI50 (A549) read?
Its GI50 is 5.6 µM (inactive).

What about the GI50 (SW-620) of the same compound?
The GI50 was 5.78 µM (inactive).

What about the GI50 (HOP-62) of the same compound?
Its GI50 is 4.67 µM (inactive).

What about the GI50 (CAKI-1) of the same compound?
Its GI50 is 4.75 µM (inactive).

And the GI50 (786-0)?
Its GI50 is 4.4 µM (inactive).

What about the GI50 (CCRF-CEM) of the same compound?
Its GI50 is 3.96 µM (inactive).

And the GI50 (HCT-15)?
Its GI50 is 4.99 µM.

And the GI50 (SK-MEL-5)?
Its GI50 is 4.28 µM (inactive).

What about the GI50 (LOX IMVI) of the same compound?
Its GI50 is 7.13 µM (inactive).

And the GI50 (T47D)?
The GI50 was 2.86 µM (inactive).

What about the GI50 (OVCAR-4) of the same compound?
The GI50 was 4.05 µM (inactive).

What about the GI50 (RXF 393) of the same compound?
Its GI50 is 2.05 µM (inactive).

With CC1(C)CCC[C@]2(C)[C@H]3[C@H](C#N)c4cc(O)c(O)cc4O[C@@]3(C)CC[C@@H]12 as the compound, how does the GI50 (SW-620) read?
Its GI50 is > 10 µM (inactive).

And the GI50 (NCI-H226)?
Its GI50 is > 10 µM (inactive).

What about the GI50 (HOP-62) of the same compound?
The GI50 was > 10 µM (inactive).

And the GI50 (CAKI-1)?
Its GI50 is > 10 µM (inactive).

What about the GI50 (OVCAR-5) of the same compound?
The GI50 was > 10 µM (inactive).

And the GI50 (OVCAR-3)?
The GI50 was > 10 µM (inactive).

And the GI50 (786-0)?
Its GI50 is > 10 µM (inactive).

What about the GI50 (SR) of the same compound?
The GI50 was > 10 µM (inactive).

What about the GI50 (NCI-H522) of the same compound?
Its GI50 is > 10 µM (inactive).

And the GI50 (CCRF-CEM)?
Its GI50 is > 10 µM (inactive).

And the GI50 (HCT-15)?
Its GI50 is greater than 10 µM.

And the GI50 (SK-MEL-5)?
The GI50 was > 10 µM (inactive).

What about the GI50 (NCI/ADR-RES) of the same compound?
Its GI50 is > 10 µM (inactive).

And the GI50 (LOX IMVI)?
Its GI50 is > 10 µM (inactive).

And the GI50 (SNB-19)?
The GI50 was > 10 µM (inactive).

What about the GI50 (U-251) of the same compound?
Its GI50 is > 10 µM (inactive).

What about the GI50 (OVCAR-4) of the same compound?
Its GI50 is > 10 µM (inactive).

And the GI50 (RXF 393)?
Its GI50 is > 10 µM (inactive).

Which results are given for CC(Cn1c2c(c3cc(O)ccc31)CCc1ccc(O)cc1-2)N(C)C (stereo not drawn)?
GI50 (SW-620): 20.3 µM (inactive); GI50 (NCI-H226): 14.4 µM (inactive); GI50 (HOP-62): 15.6 µM (inactive); GI50 (CAKI-1): 22.4 µM (inactive); GI50 (OVCAR-5): 19.3 µM (inactive); GI50 (OVCAR-3): 15.6 µM (inactive); GI50 (786-0): 15.5 µM (inactive); GI50 (SR): 48.2 µM (inactive); GI50 (CCRF-CEM): 53.3 µM (inactive); GI50 (HCT-15): 13.9 µM; GI50 (NCI/ADR-RES): 20.2 µM (inactive); GI50 (LOX IMVI): 23.4 µM (inactive); GI50 (SNB-19): 17.8 µM (inactive); GI50 (U-251): 28.2 µM (inactive); GI50 (RXF 393): 22.1 µM (inactive)

Which GI50 (A549) does the source give for COc1ccc(/C=N/NC(=O)C2=C(N)N(c3ccccc3)C(=C(C#N)C#N)S2)cc1 here?
Its GI50 is > 100 µM (inactive).

And the GI50 (SW-620)?
Its GI50 is > 100 µM (inactive).

And the GI50 (NCI-H226)?
Its GI50 is > 100 µM (inactive).

And the GI50 (HOP-62)?
Its GI50 is 53.8 µM (inactive).

What about the GI50 (OVCAR-5) of the same compound?
The GI50 was > 100 µM (inactive).

What about the GI50 (OVCAR-3) of the same compound?
The GI50 was 60.4 µM (inactive).

And the GI50 (786-0)?
The GI50 was 62.5 µM (inactive).

What about the GI50 (SR) of the same compound?
Its GI50 is > 100 µM (inactive).

And the GI50 (NCI-H522)?
Its GI50 is > 100 µM (inactive).

What about the GI50 (CCRF-CEM) of the same compound?
The GI50 was > 100 µM (inactive).

And the GI50 (HCT-15)?
Its GI50 is greater than 100 µM.

What about the GI50 (SK-MEL-5) of the same compound?
The GI50 was > 100 µM (inactive).

What about the GI50 (NCI/ADR-RES) of the same compound?
The GI50 was > 100 µM (inactive).

What about the GI50 (SNB-19) of the same compound?
Its GI50 is 70 µM (inactive).

And the GI50 (U-251)?
Its GI50 is 63.8 µM (inactive).

And the GI50 (OVCAR-4)?
Its GI50 is > 100 µM (inactive).
